Results from article PMC10958225, “Therapeutic potential of orally applied KB-R7943 in streptozotocin-induced neuropathy in rats” (Heliyon, 2024).

Tests used:
[1] = tested on: STZ-treated rats with neuropathy; experiment: Forced swim test (FST); type: in vivo, rat; conditions: 10 mg/kg p.o. once daily from day 28, test on day 41, 5-min test
Protocol: (§1) On the day of diabetic state induction, rats were deprived of food for 6 h (from 8 a.m. to 2 p.m.). A single i.p. injection was applied with 55 mg/kg STZ in the ice-cold citrate buffer (0.1 M pH 4.4). The observed polydipsia, polyuria, reduced thriving with lower body weight, and poor coating appearance indirectly indicated the development of diabetes. On day 28, after 6 h of fasting, blood glucose was measured with an Xpress Statstrip Glucometer (Nova Biomedical Corporation, Waltham, MA, USA) from the tail vein. A cut-off value of blood glucose >13 mmol/l was adopted. […] Controls were once i.p. injected with ice-cold citrate buffer 0.1 M pH 4.4 only.
(§2) Three animals per cage were housed for the experiment 2 (Fig. 3B). Rats were gently manipulated daily before undertaking the actual behavior tests. […] Body weight (BW), coat score (CS), CPT, R–S, and FT were evaluated on day 28th post-STZ, and after that, rats were distributed into the treatment groups as follows. • C-Veh – Controls, vehiculum treatment (n = 12) • NP-Veh – STZ-treated rats with neuropathy, vehiculum treatment (n = 12) • NP-KB-R7943 – 5 mg - STZ-treated rats, with neuropathy, KB-R7943 5 mg/kg treatment (n = 12) • NP-KB-R7943 – 10 mg – STZ-treated rats, with neuropathy, KB-R7943 10 mg/kg (n = 12) • NP-AMT – 10 mg - STZ-treated rats, with neuropathy, amitriptyline 10 mg/kg (n = 12). […]

[2] = tested on: STZ-treated rats with neuropathy; experiment: 24-hour spontaneous physical activity; type: in vivo, rat; conditions: 10 mg/kg p.o. once daily from day 28, from day 41
Protocol: as §1, §2

[3] = tested on: STZ-treated rats with neuropathy; experiment: Coat state score; type: in vivo, rat; conditions: chronic p.o. treatment from day 28, day 42
Protocol: as §1
as §2, with “3B).” for “3B). Rats were gently manipulated daily before undertaking the actual behavior tests.”
Coat state, water consumption, and body weight were evaluated weakly. […] Water consumption was measured per cage. […]

[4] = tested on: STZ-treated rats with neuropathy; experiment: Cold plate test; type: in vivo, rat; conditions: 10 mg/kg p.o. once daily, end of the trial
Protocol: as §1
as §2, with “3B).” for “3B). Rats were gently manipulated daily before undertaking the actual behavior tests.”
This test was used for allodynia testing. […] Two independent observers recorded the time-to-paw lifting. […]

[5] = tested on: STZ-treated rats with neuropathy; experiment: Paw pressure (Randall-Selitto) test; type: in vivo, rat; conditions: 10 mg/kg p.o. once daily, vs. NPveh
Protocol: as §1, §2

[6] = tested on: STZ-treated rats with neuropathy; experiment: Formalin test (0.5% formalin); type: in vivo, rat
Protocol: as §1
(§3) Three animals per cage were housed for the experiment 2 (Fig. 3B). Rats were gently manipulated daily before undertaking the actual behavior tests. One week after adaptation, the Randl-Stellito (R–S) test, cold plate test (CPT), and formalin tests (FT) were performed at baseline. After that, the diabetes model was made with 48 rats. Twelve animals served as controls. Body weight (BW), coat score (CS), CPT, R–S, and FT were evaluated on day 28th post-STZ, and after that, rats were distributed into the treatment groups as follows. • C-Veh – Controls, vehiculum treatment (n = 12) • NP-Veh – STZ-treated rats with neuropathy, vehiculum treatment (n = 12) • NP-KB-R7943 – 5 mg - STZ-treated rats, with neuropathy, KB-R7943 5 mg/kg treatment (n = 12) • NP-KB-R7943 – 10 mg – STZ-treated rats, with neuropathy, KB-R7943 10 mg/kg (n = 12) • NP-AMT – 10 mg - STZ-treated rats, with neuropathy, amitriptyline 10 mg/kg (n = 12).
(§4) OraPlus was used as a vehiculum for gavage (16 gauge feeding tube 10 ml/kg) in all rats. KB-R7943 in two doses (5 or 10 mg/kg) or amitriptyline 10 mg/kg was applied once daily until day 49. Behavior tests were performed […] after the oral gavage of the corresponding day, in the afternoon, starting from 2 p.m. […] On day 41, an FST was performed, and at 2 p.m., rats were placed individually for 24 h to assess spontaneous physical activity. After that, on day 42, the same battery of the tests as on day 28 were reassessed.
The formalin test was performed 1 h after the R–S test to decrease the interaction with the mechanical stimulus from the previous test. For the same reason, the left hind paws were injected. A needle (U-100 Insulin Syringe, Beckton and Dickinson, Dublin, Ireland) was used. A low-dose intraplantar injection of formalin 50 mcl 0.5% was done, and rats were placed in individual transparent cases for observation. Two independent observers measured the time spent licking or biting the injected paw, and the first (0–5 min) and the second post-injection phase (20–30 min) were reported in sec.

[7] = tested on: STZ-treated rats with neuropathy; experiment: Mortality and adverse effects during chronic oral treatment; type: in vivo; conditions: p.o. once daily day 28 to 49
Protocol: as §3
as §4, with “After that, on day 42, the same battery of the tests as on day 28 were reassessed.” left out

Compound: CN(C)CCC=C1c2ccccc2CCc2ccccc21 [amitriptyline]
- immobility time in FST [1]: 137.50 ± 31.94 s
- 24-h spontaneous physical activity [2]: 1678.33 ± 282.00 beam breaks
- effect on coat score [3]: ameliorated
- effect on cold allodynia (cold plate test) [4]: demonstrated a reversal effect
- effect on mechanical allodynia (R–S test) [5]: partly reversed
- effect on formalin test first phase (0–5 min) ([6]; 10 mg/kg p.o. once daily, vs. NP-Veh): attenuated
- effect on formalin test second phase (20–30 min) ([6]; amitriptyline 10 mg/kg, KB-R7943 5 and 10 mg/kg p.o. once daily, vs. NPveh, dose-dependent): attenuated
- mortality during treatment [7]: No one rat died
